Laboratory results reported in patent US20050143382A1 (4SC AG, priority 2003, published 2005).

Key:
Type in all cases: biochemical
Details in all cases: recombinant human kinase, 1 μM ATP
Aurora B kinase = molecular target: T1, Aurora B kinase (Homo sapiens, UniProt Q96GD4); test: 33PanQinase protein kinase activity assay, Aurora B
T1 construct: made in house; host or cells: Sf9 insect cells (baculovirus)
Description: (§1) The effect of the farazanopyrazine derivatives was tested on recombinant, human protein kinases. All protein kinases were expressed in Sf9 insect cells as human recombinant GST-fusion proteins or as His-tagged proteins by means of the baculovirus expression system. Protein kinases were purified by affinity chromatography using either GSH-agarose or Ni-NTH-agarose. The purity and identity of each was checked by SDS-PAGE/silver staining and by western blot analysis with specific antibodies.
(§2) A proprietary protein kinase assay (^33 PanQinase® Activity Assay) was used for measuring the kinase activity. All kinase assays were performed in 96-well FlashPlates™ in a 50 μl reaction volume. The assay for all enzymes contained 60 mM HEPES-NaOH, pH 7.5, 3 mM MgCl2, 3 mM MnCl2, 3 μM Na-orthovanadate, 1.2 mM DTT, 50 μg/ml PEG20000 and 1 μM [γ-^33P]-ATP (approx. 5×10^5 cpm per well).
(§3) The reaction cocktails were incubated at 30° C. for 80 minutes. The reaction was stopped with 50 μl of 2% (v/v) H3PO4, plates were aspirated and washed two times with 200 μl of 0.9% (w/v) NaCl. Incorporation of 33Pi was determined with a microplate scintillation counter. All assays were performed with a BeckmanCoulter/Sagian robotic system.

IGF-1 R = molecular target: T2, IGF-1 R (Homo sapiens, UniProt P08069); test: 33PanQinase protein kinase activity assay, IGF-1 R
T2 construct: made in house; host or cells: Sf9 insect cells (baculovirus)
T2 sequence (P08069 31-1367): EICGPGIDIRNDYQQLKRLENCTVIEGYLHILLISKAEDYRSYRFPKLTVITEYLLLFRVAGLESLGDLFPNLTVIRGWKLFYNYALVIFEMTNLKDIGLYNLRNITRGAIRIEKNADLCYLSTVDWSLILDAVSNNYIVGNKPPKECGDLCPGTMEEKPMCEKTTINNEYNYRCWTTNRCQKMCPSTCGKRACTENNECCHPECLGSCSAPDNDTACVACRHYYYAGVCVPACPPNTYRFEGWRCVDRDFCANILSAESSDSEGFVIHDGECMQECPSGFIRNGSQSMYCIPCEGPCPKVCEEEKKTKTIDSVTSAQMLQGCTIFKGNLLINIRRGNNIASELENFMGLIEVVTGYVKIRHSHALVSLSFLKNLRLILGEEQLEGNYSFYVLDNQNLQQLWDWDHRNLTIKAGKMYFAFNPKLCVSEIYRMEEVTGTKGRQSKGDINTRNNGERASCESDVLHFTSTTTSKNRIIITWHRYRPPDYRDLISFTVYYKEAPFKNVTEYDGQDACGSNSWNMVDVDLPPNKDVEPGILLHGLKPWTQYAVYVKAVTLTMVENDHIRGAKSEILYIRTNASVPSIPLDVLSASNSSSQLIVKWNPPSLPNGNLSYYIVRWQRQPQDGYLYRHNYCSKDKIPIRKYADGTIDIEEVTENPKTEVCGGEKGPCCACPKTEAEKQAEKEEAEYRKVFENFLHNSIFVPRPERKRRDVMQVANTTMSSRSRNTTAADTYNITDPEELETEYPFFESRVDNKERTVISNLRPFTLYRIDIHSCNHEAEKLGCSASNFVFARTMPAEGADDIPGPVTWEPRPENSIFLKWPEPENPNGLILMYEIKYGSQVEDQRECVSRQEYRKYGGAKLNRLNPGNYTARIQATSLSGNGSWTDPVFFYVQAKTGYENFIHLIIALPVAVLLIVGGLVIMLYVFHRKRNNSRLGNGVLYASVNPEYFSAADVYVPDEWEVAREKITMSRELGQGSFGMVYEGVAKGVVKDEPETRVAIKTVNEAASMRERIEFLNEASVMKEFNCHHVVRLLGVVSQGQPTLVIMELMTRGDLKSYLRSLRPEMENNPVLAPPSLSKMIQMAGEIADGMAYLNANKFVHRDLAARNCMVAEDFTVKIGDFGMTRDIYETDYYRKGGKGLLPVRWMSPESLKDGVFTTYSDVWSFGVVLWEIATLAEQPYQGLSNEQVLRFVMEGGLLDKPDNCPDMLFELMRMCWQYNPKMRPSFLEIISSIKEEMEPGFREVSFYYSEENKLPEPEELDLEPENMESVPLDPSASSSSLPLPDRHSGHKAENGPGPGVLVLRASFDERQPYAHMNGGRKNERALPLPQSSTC
Description: as §1, §2, §3

VEGF-R2 = molecular target: T3, VEGF-R2 (Homo sapiens, UniProt P35968); test: 33PanQinase protein kinase activity assay, VEGF-R2
T3 construct: made in house; host or cells: Sf9 insect cells (baculovirus)
T3 sequence (P35968 20-1356): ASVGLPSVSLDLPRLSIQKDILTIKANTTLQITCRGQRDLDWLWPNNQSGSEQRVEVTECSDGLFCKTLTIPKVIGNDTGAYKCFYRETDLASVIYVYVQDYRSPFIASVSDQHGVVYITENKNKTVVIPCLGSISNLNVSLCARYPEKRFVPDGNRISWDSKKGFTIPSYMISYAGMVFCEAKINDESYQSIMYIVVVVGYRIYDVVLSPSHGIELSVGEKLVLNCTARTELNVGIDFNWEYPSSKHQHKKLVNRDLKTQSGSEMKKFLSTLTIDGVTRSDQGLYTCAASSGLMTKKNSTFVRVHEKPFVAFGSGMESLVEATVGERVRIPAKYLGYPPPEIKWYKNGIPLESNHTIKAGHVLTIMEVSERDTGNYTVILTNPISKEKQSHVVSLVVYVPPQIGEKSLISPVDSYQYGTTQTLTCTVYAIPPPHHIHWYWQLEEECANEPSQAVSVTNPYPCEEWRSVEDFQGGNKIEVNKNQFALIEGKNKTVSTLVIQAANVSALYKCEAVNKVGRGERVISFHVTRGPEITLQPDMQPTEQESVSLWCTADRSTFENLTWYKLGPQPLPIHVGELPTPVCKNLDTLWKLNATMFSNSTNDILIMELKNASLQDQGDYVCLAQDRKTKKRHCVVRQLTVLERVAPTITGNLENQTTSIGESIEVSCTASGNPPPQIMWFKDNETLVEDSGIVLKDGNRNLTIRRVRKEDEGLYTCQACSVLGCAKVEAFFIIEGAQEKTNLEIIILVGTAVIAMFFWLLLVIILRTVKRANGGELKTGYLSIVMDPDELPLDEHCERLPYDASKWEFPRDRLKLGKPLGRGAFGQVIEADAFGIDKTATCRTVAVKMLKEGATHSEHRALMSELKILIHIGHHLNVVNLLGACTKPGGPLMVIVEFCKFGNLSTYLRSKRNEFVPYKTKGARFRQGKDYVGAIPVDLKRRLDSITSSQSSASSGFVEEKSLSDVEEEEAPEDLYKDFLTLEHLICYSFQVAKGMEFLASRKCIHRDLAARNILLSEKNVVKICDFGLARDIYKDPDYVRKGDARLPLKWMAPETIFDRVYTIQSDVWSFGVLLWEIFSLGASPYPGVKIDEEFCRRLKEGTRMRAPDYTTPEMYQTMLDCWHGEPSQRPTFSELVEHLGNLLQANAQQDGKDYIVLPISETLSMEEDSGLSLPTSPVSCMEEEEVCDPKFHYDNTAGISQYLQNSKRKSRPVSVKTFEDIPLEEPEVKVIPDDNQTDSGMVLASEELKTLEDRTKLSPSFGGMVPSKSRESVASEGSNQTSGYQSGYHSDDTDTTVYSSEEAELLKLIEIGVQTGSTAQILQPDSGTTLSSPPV
Description: as §1, §2, §3

SRC kinase = molecular target: T4, SRC kinase (Homo sapiens, UniProt P12931); test: 33PanQinase protein kinase activity assay, SRC
T4 construct: made in house; host or cells: Sf9 insect cells (baculovirus)
T4 sequence (P12931 whole entry): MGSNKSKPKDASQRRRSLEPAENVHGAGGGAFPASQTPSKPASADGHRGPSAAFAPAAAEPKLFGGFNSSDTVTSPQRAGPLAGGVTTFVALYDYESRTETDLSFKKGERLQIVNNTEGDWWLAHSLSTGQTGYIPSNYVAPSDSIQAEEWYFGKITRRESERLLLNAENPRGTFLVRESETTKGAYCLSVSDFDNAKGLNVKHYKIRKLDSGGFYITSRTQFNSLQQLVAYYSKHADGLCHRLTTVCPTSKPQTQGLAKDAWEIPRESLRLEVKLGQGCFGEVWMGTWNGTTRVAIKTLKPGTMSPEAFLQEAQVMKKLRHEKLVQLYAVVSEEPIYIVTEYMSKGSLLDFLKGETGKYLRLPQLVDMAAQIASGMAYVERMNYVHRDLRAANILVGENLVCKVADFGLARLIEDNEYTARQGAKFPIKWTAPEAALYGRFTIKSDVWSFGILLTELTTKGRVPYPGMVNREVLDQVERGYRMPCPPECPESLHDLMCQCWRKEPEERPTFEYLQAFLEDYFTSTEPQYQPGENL
Description: as §1, §2, §3

T1 sequence (Q96GD4 whole entry): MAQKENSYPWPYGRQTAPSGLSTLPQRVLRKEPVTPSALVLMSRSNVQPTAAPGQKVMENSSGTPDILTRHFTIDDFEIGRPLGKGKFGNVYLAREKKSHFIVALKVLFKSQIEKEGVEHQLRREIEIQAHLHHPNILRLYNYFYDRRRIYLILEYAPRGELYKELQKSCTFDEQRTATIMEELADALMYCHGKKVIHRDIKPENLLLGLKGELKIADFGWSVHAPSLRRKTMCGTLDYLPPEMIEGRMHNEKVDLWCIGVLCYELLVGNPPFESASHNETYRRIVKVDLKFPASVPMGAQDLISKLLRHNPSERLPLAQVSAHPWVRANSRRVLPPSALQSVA

| Structure (SMILES) | IC50 (Aurora B kinase) [µM] | IC50 (IGF-1 R) [µM] | IC50 (VEGF-R2) [µM] | IC50 (SRC kinase) [µM] |
| --- | --- | --- | --- | --- |
| O=C(O)c1cccc(-c2ccc(C=NNc3nc4nonc4nc3Nc3ccccc3)o2)c1 [Example 89] | < 10 | – | – | – |
| O=C(O)c1ccc(-c2ccc(C=NNc3nc4nonc4nc3Nc3ccc(Cl)c(Cl)c3)o2)cc1 [Example 199] | < 10 | < 1 | < 2 | < 1 |
| O=C(O)c1ccc(-c2ccc(C=NNc3nc4nonc4nc3NCc3ccccc3)o2)cc1 [Example 117] | < 10 | – | – | – |
| Oc1ccc(C=NNc2nc3nonc3nc2Nc2cccc(Cl)c2)c(O)c1 [Example 147] | < 10 | – | – | – |
| O=C(O)c1cccc(-c2ccc(C=NNc3nc4nonc4nc3NCc3ccccc3)o2)c1 [Example 111] | < 10 | – | – | – |
| O=C(O)c1cccc(-c2ccc(C=NNc3nc4nonc4nc3Nc3ccc(F)c(Cl)c3)o2)c1 [Example 173] | < 10 | < 1 | – | < 1 |
| COc1ccccc1Nc1nc2nonc2nc1NN=Cc1cc(I)cc(I)c1O [Example 47] | < 10 | – | – | – |
| COc1cc(C=NNc2nc3nonc3nc2Nc2ccccc2F)cc([N+](=O)[O-])c1O [Example 7] | < 10 | – | < 2 | < 1 |
| Oc1ccc(C=NNc2nc3nonc3nc2Nc2ccc(F)cc2)c(O)c1 [Example 126] | < 10 | – | – | – |
| O=C(O)c1cccc(-c2ccc(C=NNc3nc4nonc4nc3Nc3ccc(Cl)c(Cl)c3)o2)c1 [Example 194] | < 10 | < 1 | < 2 | < 1 |
| Oc1ccc(C=NNc2nc3nonc3nc2Nc2ccc(Cl)c(Cl)c2)c(O)c1 [Example 189] | < 10 | – | – | – |
| Oc1ccc(C=NNc2nc3nonc3nc2Nc2ccc(F)c(Cl)c2)c(O)c1 [Example 165] | < 10 | – | < 2 | – |
| O=C(O)c1cc(-c2ccc(C=NNc3nc4nonc4nc3Nc3ccc(F)c(Cl)c3)o2)ccc1Cl [Example 176] | < 10 | < 1 | < 2 | < 1 |
| O=S(=O)(O)c1ccc(C=NNc2nc3nonc3nc2Nc2ccc(F)c(Cl)c2)o1 [Example 181] | < 10 | – | – | – |
| O=C(O)c1cc(-c2ccc(C=NNc3nc4nonc4nc3Nc3ccc(Cl)c(Cl)c3)o2)ccc1Cl [Example 196] | < 10 | < 1 | < 2 | < 1 |
| Oc1ccc(C=NNc2nc3nonc3nc2Nc2ccccc2)c(O)c1 [Example 81] | < 10 | – | – | – |
| O=C(O)c1cc(-c2ccc(C=NNc3nc4nonc4nc3Nc3ccc(Br)cc3)o2)ccc1Cl [Example 52] | < 10 | < 1 | < 2 | < 1 |
| O=C(O)c1cc(-c2ccc(C=NNc3nc4nonc4nc3Nc3ccccc3F)o2)ccc1O [Example 23] | < 10 | < 1 | < 2 | < 1 |
| O=C1Nc2ccccc2C1=NNc1nc2nonc2nc1Nc1ccccc1 [Example 95, 3-[(6-Phenylamino-[1,2,5]oxadiazolo [3,4-b]pyrazin-5-yl)-hydrazono]-1,3-dihydro-indol-2-one] | < 10 | < 1 | – | – |
| O=C(O)c1cccc(-c2ccc(C=NNc3nc4nonc4nc3Nc3cccc(Cl)c3)o2)c1 [Example 154] | < 10 | < 1 | < 2 | < 1 |
| Fc1ccc(Nc2nc3nonc3nc2NN=Cc2ccc(-c3ccc(Cl)cc3)o2)cc1Cl [Example 180, (3-Chloro-4-fluoro-phenyl)-(6-{N′-[5-(4-chloro-phenyl)-furan-2-yl-methylene]-hydrazino}-[1,2,5]oxadiazolo [3,4-b]pyrazin-5-yl)-amine] | – | < 1 | < 2 | < 1 |
